Where two headings read alike, the source gives them in different places.

Series [1] relates to A375 melanoma xenograft (B-Raf mutant). Put plainly: In vivo tumor efficacy, B-Raf mutated A375 human melanoma xenograft model. Further details: species or system Mouse (Mus musculus) Athymic Balb/c Nude. The conditions noted are these: for Mean Maximum % BWL: Day 0 to Day 21; for TGI: Day 21 post treatment initiation. How it is done: Each animal was inoculated with 3×10^6 A375 tumor cells (in 0.1 mL, 1:1 with Matrigel) into the right flank for tumor model development. Body weight and the tumor growth were monitored twice weekly. Tumor size was measured to the nearest 0.1 mm using vernier calipers and applying the formula V=W2×L/2, where V=volume, W=width, and L=length for the tumor xenograft. Xenografts were allowed to grow until they reached an average size of approximately 195 min3, 11 days after inoculation.
Sodium alisertib was formulated in 10% HPβCD plus 1% NaHCO3 in water for injection (WFI) (Vehicle 2). Alisertib was prepared and stored at room temperature (18 to 25° C.).
Animals in the vehicle treatment group were given both Vehicle 1 and Vehicle 2.
The dose volume for vehicle or compound was 5 mL/kg body weight.
Tumor size and body weight were measured twice weekly beginning on the day of animal grouping (e.g., Day 0). Animals were terminated when their tumor reached approximately 2000 mm3 and the study was terminated on Day 38 post treatment initiation.
Inhibition of tumor growth was determined by calculating the percent TGI (MTV of the vehicle group−MTV of a treated group)/MTV of the vehicle group] on Day 21 post treatment initiation. Statistical comparisons of tumor growth between treatment groups and vehicle were conducted using a linear mixed effects regression analysis on the ΔAUC.
Statistical analysis was carried out as described in Example 2.
On the technique in general: Xenograft models place foreign cells or tissue in a host animal.

Series [2] has as its system SK-MEL-2 human melanoma xenograft (NRAS mutant). In kind it is in vivo. The conditions noted are these: for Non-Specific Deaths / Regression (100%) / Tumor Free on Day 74: n=8; for Delta AUC: vs vehicle. Here is the method:
Eight week old female athymic NCr-nu/nu mice were inoculated SC with 30-40 mg tumor fragments, propagated in an in vivo passage, in the area of the right flank. Tumor growth was monitored with vernier calipers and the tumor volume was calculated using the formula (0.5×[length×width^2]). When the mean tumor volume (MTV) reached approximately 167 mm^3 (range of 100-245 mm^3) animals were randomized into 12 treatment groups (n=8/group). The animals were dosed beginning 12 days after tumor inoculation with either vehicles or test compounds. The first day of treatment was designated as Day 0.
The 10 mg/mL solution was diluted with 100% PEG 400 for the lower dose.
Sodium alisertib was formulated in a half volume of 20% HPBCD in WFI and then diluted to a final volume (10% HPBCD/1% NaHCO3 in WFI) with 2% sodium bicarbonate in WFI.
The 2 vehicles, 100% PEG 400 (Vehicle 1) and 10% HPBCD/1% NaHCO3 in WFI (Vehicle 2) were administered (0.05 mL/10 g BW) concomitantly to mice in the vehicle group.
Tumor size and body weight were measured BIW beginning on the first day of treatment. Animals were terminated when their tumor reached approximately 2000 mm3, and the study was terminated on Day 62 post treatment initiation.
Inhibition of tumor growth was determined by calculating the percent TGI (MTV of the vehicle group−MTV of a treated group)/MTV of the vehicle group on Day 20 post treatment initiation. Statistical comparisons of tumor growth between treatment groups and vehicle were conducted using a linear mixed effects regression analysis on the ΔAUC.
Additional endpoints used to evaluate efficacy were: nonspecific deaths, complete tumor response, and the number of tumor-free survivors (TFS), defined as no measurable tumor observed on the last day of data collection prior to study termination (Day 62 post treatment initiation). A complete response (CR) was defined as a decrease in tumor mass to an undetectable size (<32 mm3).
The differences in the tumor growth trends over time between the vehicle control and treatment groups were assessed using linear mixed effects regression models. These models take into account that each animal was measured at multiple time points. A model was fit for the comparison, and the areas under the tumor volume-versus-time curve (AUCs) for control and treatment groups were calculated using the values predicted from the model.
These values were compared across treatment groups to assess whether the differences in trends over time were statistically significant. To compare pairs of treatment groups, the following mixed-effects linear regression model was fit to the data using the maximum likelihood method:
Where Yijk is the log 10 tumor value at the jth time point of the kth animal in the ith treatment, Yi0k is the day 0 (baseline) log 10 tumor value in the kth animal in the ith treatment, dayj was the median-centered time point and (along with day2j) was treated as a continuous variable, and eijk is the residual error. A spatial power law covariance matrix was used to account for the repeated measurements on the same animal over time. Interaction terms as well as day2j terms were removed if there were not statistically significant.
The −2 log likelihood of the full model was compared to one without any treatment terms (reduced model) and the difference in the values was tested using a Chi-squared test. The degrees of freedom of the test were calculated as the difference between the degrees of freedom of the full model and that of the reduced model.
The predicted differences in the log tumor values (Yijk-Yi0k, which can be interpreted as log 10 (fold change from day 0)) were taken from the above models to calculate mean AUC values for each treatment group. A dAUC value was then calculated as: […]
For synergy analysis, the observed differences in the log tumor values were used to calculate AUC values for each animal. […]

Setting [3] is: Compound A 12.5 mg/kg PO QD Days 1-21 (+Vehicle 2).
The mark [4] stands for this setting: Compound A 50 mg/kg PO BIW Days 1, 4, 8, 11, 15, 18 (+Vehicle 2).
Setting [5] is: Compound A 12.5 mg/kg/inj PO Q1D x 21 from Day 12 (+Vehicle 2).
[6] abbreviates: Compound A 50 mg/kg/inj PO Q3D x 2/3 wks (BIW) from Day 12 (+Vehicle 2).
[7] abbreviates: alisertib 10 mg/kg PO QD Days 1-21 (+Vehicle 1).
Setting [8] is: alisertib 20 mg/kg PO QD Days 1-21 (+Vehicle 1).
[9] abbreviates: alisertib 20 mg/kg/inj PO Q1D x 21 from Day 12 (+Vehicle 1).

Regarding `C[C@@H](NC(=O)c1ncnc(N)c1Cl)c1ncc(C(=O)Nc2cc(C(F)(F)F)c(Cl)cn2)s1` [Compound A, (R)-2-(1-(6-amino-5-chloropyrimidine-4-carboxamide)ethyl)-N-(5-chloro-4-(trifluoromethyl)pyridin-2-yl)thiazole-5-carboxamide], in series [1] (setting [3]), the “Mean Maximum % BWL” value is reported as 0% and the TGI (in general, the reduction of tumour growth relative to the control group) came to 76.4%. In series [1] (setting [4]), the “Mean Maximum % BWL” value was 0% and the TGI worked out at 45.3%. Further, in series [2] (setting [5]), the “Mean Tumor Volume on Day 32” value is 645 mm^3, the “TGI on Day 32” value turned out to be 70.7%, the “Non-Specific Deaths” value is 0 and the “Regression (100%)” value amounted to 0. Moreover, in series [2] (setting [5]), the “Tumor Free on Day 74” value was determined as 0 and the “Delta AUC” value was found to be 37.3. Further, in series [2] (setting [6]), the “Mean Tumor Volume on Day 32” value is 816 mm^3, the “TGI on Day 32” value is 62.9%, the “Non-Specific Deaths” value amounted to 0 and the “Regression (100%)” value was 0. In series [2] (setting [6]), the “Tumor Free on Day 74” value stood at 0 and the “Delta AUC” value amounted to 35.6.

As to `COc1cc(Nc2ncc3c(n2)-c2ccc(Cl)cc2C(c2c(F)cccc2OC)=NC3)ccc1C(=O)O` [alisertib, 4-{[9-chloro-7-(2-fluoro-6-methoxyphenyl)-5H-pyrimido[5,4-d][2]benzazepin-2-yl]amino}-2-methoxybenzoic acid, reference compound], in series [1] (setting [7]), the “Mean Maximum % BWL” value was 0% and the TGI is recorded as 21.7%. In addition, in series [1] (setting [8]), the “Mean Maximum % BWL” value is reported as 0% and the TGI was determined as 40.7%. Besides, in series [2] (setting [9]), the “Mean Tumor Volume on Day 32” value turned out to be 872 mm^3, the “TGI on Day 32” value turned out to be 60.3%, the “Non-Specific Deaths” value is listed as 0 and the “Regression (100%)” value stood at 0. In addition, in series [2] (setting [9]), the “Tumor Free on Day 74” value came to 0 and the “Delta AUC” value stood at 30.9.

(Values after patent US20180263979A1, “COMBINATION OF RAF INHIBITORS AND AURORA KINASE INHIBITORS” (MILLENNIUM PHARMACEUTICALS, INC., priority 2014, published 2018).)
